Here are results for four cell lines from the supplement of paper PMC10307832.

Assay in all cases: relative viability (nuclei count vs DMSO), 5 days (fraction); higher = more cells survive
Compound in the experiment “Nelarabine + Trametinib”: COc1nc(N)nc2c1ncn2[C@@H]1O[C@H](CO)[C@@H](O)[C@@H]1O [Nelarabine] + CC(=O)Nc1cccc(-n2c(=O)n(C3CC3)c(=O)c3c(Nc4ccc(I)cc4F)n(C)c(=O)c(C)c32)c1 [Trametinib] (partner 0.02 µM)
The gist of the method:
(§1)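 Each reported value is a median over duplicate plates. It expresses relative viability: treated-well nuclei count divided by vehicle-well nuclei count. Lung cancer cell lines in 1536-well plates were dosed by pin tool a day after seeding, alone with one drug or with a fixed anchor-drug dose plus five library-drug doses (not always all listed) in √10 steps, and nuclei were counted after 5 days.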

Compound in the experiment “Nelarabine + Pictilisib”: COc1nc(N)nc2c1ncn2[C@@H]1O[C@H](CO)[C@@H](O)[C@@H]1O [Nelarabine] + CS(=O)(=O)N1CCN(Cc2cc3nc(-c4cccc5[nH]ncc45)nc(N4CCOCC4)c3s2)CC1 [Pictilisib] (partner 1 µM)
In short, it runs like this:
as §1

Compound in experiment [1]: C=CCn1c(=O)c2cnc(Nc3ccc(N4CCN(C)CC4)cc3)nc2n1-c1cccc(C(C)(C)O)n1 [Adavosertib] + CC(=O)c1c(C)c2cnc(Nc3ccc(N4CCNCC4)cn3)nc2n(C2CCCC2)c1=O [Palbociclib] (partner 0.5 µM)
In short, it runs like this: as §1

Compound in the experiment “Nelarabine + Palbociclib”: COc1nc(N)nc2c1ncn2[C@@H]1O[C@H](CO)[C@@H](O)[C@@H]1O [Nelarabine] + CC(=O)c1c(C)c2cnc(Nc3ccc(N4CCNCC4)cn3)nc2n(C2CCCC2)c1=O [Palbociclib] (partner 0.5 µM)
In short, it runs like this: as §1

For NCI-H1666, the relative viability in the experiment with Nelarabine + Trametinib (first compound 0.01 µM) is 0.82; in the experiment with Nelarabine + Trametinib (first compound 0.03162 µM), 1; with Nelarabine + Trametinib (first compound 0.1 µM), 0.738; in the experiment with Nelarabine + Trametinib (first compound 0.3162 µM), 0.839; with Nelarabine + Trametinib (first compound 1 µM), 0.859; with Nelarabine + Pictilisib (first compound 0.01 µM), 0.524. Besides, the relative viability in the experiment with Nelarabine + Pictilisib (first compound 0.03162 µM) was found to be 0.419; with Nelarabine + Pictilisib (first compound 0.1 µM), 0.371; with Nelarabine + Pictilisib (first compound 0.3162 µM), 0.409; in the experiment with Nelarabine + Pictilisib (first compound 1 µM), 0.551; in experiment [1] (first compound 0.01 µM), 0.613; in experiment [1] (first compound 0.03162 µM), 0.64. Besides, the relative viability in experiment [1] (first compound 0.1 µM) was 0.662; in experiment [1] (first compound 0.3162 µM) it was 0.699; in the experiment with Nelarabine + Palbociclib (first compound 0.01 µM) it was 0.607; in the experiment with Nelarabine + Palbociclib (first compound 0.03162 µM), 0.648; with Nelarabine + Palbociclib (first compound 0.1 µM), 0.677; with Nelarabine + Palbociclib (first compound 0.3162 µM), 0.661. Besides, in the experiment with Nelarabine + Palbociclib (first compound 1 µM), the relative viability is 0.59.
In the case of NCI-H322M, the relative viability came out at 0.547 in the experiment with Nelarabine + Trametinib (first compound 0.01 µM); 0.505 in the experiment with Nelarabine + Trametinib (first compound 0.03162 µM); 0.383 in the experiment with Nelarabine + Trametinib (first compound 0.1 µM); 0.402 in the experiment with Nelarabine + Trametinib (first compound 0.3162 µM); 0.511 with Nelarabine + Trametinib (first compound 1 µM); 0.505 in the experiment with Nelarabine + Pictilisib (first compound 0.01 µM). The relative viability is 0.523 with Nelarabine + Pictilisib (first compound 0.03162 µM); 0.433 with Nelarabine + Pictilisib (first compound 0.1 µM); 0.568 in the experiment with Nelarabine + Pictilisib (first compound 0.3162 µM); 0.542 with Nelarabine + Pictilisib (first compound 1 µM); 0.439 in experiment [1] (first compound 0.01 µM); 0.479 in experiment [1] (first compound 0.03162 µM). Further, the relative viability was 0.417 in experiment [1] (first compound 0.1 µM); 0.463 in experiment [1] (first compound 0.3162 µM); 0.382 in the experiment with Nelarabine + Palbociclib (first compound 0.01 µM); 0.499 with Nelarabine + Palbociclib (first compound 0.03162 µM); 0.475 in the experiment with Nelarabine + Palbociclib (first compound 0.1 µM); 0.473 in the experiment with Nelarabine + Palbociclib (first compound 0.3162 µM). In addition, in the experiment with Nelarabine + Palbociclib (first compound 1 µM), the relative viability stood at 0.495.
Take HCC-366: the relative viability is 0.503 with Nelarabine + Trametinib (first compound 0.01 µM); 0.37 with Nelarabine + Trametinib (first compound 0.03162 µM); 0.279 with Nelarabine + Trametinib (first compound 0.1 µM); 0.466 in the experiment with Nelarabine + Trametinib (first compound 0.3162 µM); 0.327 in the experiment with Nelarabine + Trametinib (first compound 1 µM); 0.165 with Nelarabine + Pictilisib (first compound 0.01 µM). Moreover, the relative viability with Nelarabine + Pictilisib (first compound 0.03162 µM) came to 0.122; with Nelarabine + Pictilisib (first compound 0.1 µM) it was 0.152; with Nelarabine + Pictilisib (first compound 0.3162 µM), 0.196; with Nelarabine + Pictilisib (first compound 1 µM) it was 0.132; in experiment [1] (first compound 0.01 µM) it was 0.396; in experiment [1] (first compound 0.03162 µM), 0.388. Also, the relative viability in experiment [1] (first compound 0.1 µM) was 0.471; in experiment [1] (first compound 0.3162 µM), 0.329; in the experiment with Nelarabine + Palbociclib (first compound 0.01 µM), 0.632; with Nelarabine + Palbociclib (first compound 0.03162 µM), 0.272; in the experiment with Nelarabine + Palbociclib (first compound 0.1 µM), 0.473; in the experiment with Nelarabine + Palbociclib (first compound 0.3162 µM), 0.453. Also, in the experiment with Nelarabine + Palbociclib (first compound 1 µM), the relative viability is 0.416.
Regarding NCI-H1792, the relative viability with Nelarabine + Trametinib (first compound 0.01 µM) was determined as 0.541; in the experiment with Nelarabine + Trametinib (first compound 0.03162 µM) it was 0.513; with Nelarabine + Trametinib (first compound 0.1 µM), 0.418; with Nelarabine + Trametinib (first compound 0.3162 µM), 0.373; with Nelarabine + Trametinib (first compound 1 µM), 0.508; in the experiment with Nelarabine + Pictilisib (first compound 0.01 µM), 0.348. Further, the relative viability with Nelarabine + Pictilisib (first compound 0.1 µM) amounted to 0.323; in the experiment with Nelarabine + Pictilisib (first compound 0.3162 µM), 0.326; with Nelarabine + Pictilisib (first compound 1 µM) it was 0.323; in experiment [1] (first compound 0.03162 µM) it was 0.661; in experiment [1] (first compound 0.1 µM), 0.779; in experiment [1] (first compound 0.3162 µM), 0.829. In addition, the relative viability with Nelarabine + Palbociclib (first compound 0.03162 µM) stood at 0.58; with Nelarabine + Palbociclib (first compound 0.1 µM), 0.904; with Nelarabine + Palbociclib (first compound 0.3162 µM), 0.78; in the experiment with Nelarabine + Palbociclib (first compound 1 µM) it was 0.922.
